Legend:
[1] = Cytotoxicity / antiproliferative activity, crystal violet viability assay; format: cell-based, human; conditions: human, HCT-116 colon carcinoma cells; HCT-116 cells, 3 days incubation, crystal violet absorbance at 590 nm relative to DMSO control, triplicate; read-out: IC50 (cytotoxicity against HCT-116)
Experimental: (§1) Because known indolotryptolines are potent human cell line toxins, lazarimide C, novel compounds 6 and 7, as well as cladoniamide A as a control, were tested for cytotoxicity against HCT-116 human colon carcinoma cancer cells.
(§2) The compounds were tested for antiproliferative activity in triplicate using the colon carcinoma cell line HCT-116 (ATCC; CCL-247) [See Brattain et al., “Heterogeneity of malignant cells from a human colonic carcinoma.” Cancer Res. 41(5):1751-1756(1981), incorporated herein by reference in its entirety]. For assays, frozen HCT-116 cells were thawed and grown in McCoy's 5A Modified Medium (Gibco) supplemented with 10% (v/v) FBS. Cells were sub-cultured once, and then cells in log phase growth were harvested by trypsinization. Trypsinized cells were seeded into 96-well plates (1,000 cells/well) and incubated overnight at 37° C. in the presence of 5% CO2. Compounds 6, 7, lazarimide C and cladoniamide (10 mg/mL in DMSO) were sequentially diluted in culture media (2-fold dilution starting at 50 μg/mL) across a 96-well plate and 100 μL was transferred to the appropriate well in an assay plate. The plates were incubated at 37° C. for 3 days and then evaluated for viability using a crystal violet-based colorimetric assay [See Zivadinovic et al., “Membrane estrogen receptor-alpha levels in MCF-7 breast cancer cells predict cAMP and proliferation responses.” Breast Cancer Res. 7(1):R101-112 (2005)]. Cell viability was recorded based on the absorbance at 590 nm in compound treated well relative to DMSO control wells.

[2] = test system: HCT-116 human colon carcinoma cancer cells; experiment: as above; format: cell-based; conditions: HCT-116 cells, 3 days incubation, crystal violet absorbance at 590 nm relative to DMSO control, triplicate; read-out: IC50 (cytotoxicity against HCT-116)
Experimental: as §1, §2

Row | Structure (SMILES) | IC50 at 3 days [1] [µM] | IC50 [2] [µM]
1 | CN1C(=O)[C@@]2(O)c3c([nH]c4cc(Cl)ccc34)-c3[nH]c4ccc(Cl)cc4c3[C@@]2(O)C1=O [lazarimide C] | 25.8 | –
2 | COc1c2n(c3cc(Cl)ccc13)[C@]1(O)C(=O)N(C)C(=O)[C@]1(O)c1c-2[nH]c2ccc(Cl)cc12 [Compound 6, lazarimide B] | 0.0116 | –
3 | COc1c2n(c3cc(Cl)c(O)cc13)[C@]1(O)C(=O)N(C)C(=O)[C@]1(O)c1c-2[nH]c2ccc(Cl)cc12 [Compound 7, lazarimide A] | 0.0084 | –
4 | COc1c2n(c3ccccc13)[C@]1(O)C(=O)N(C)C(=O)[C@]1(O)c1c-2[nH]c2ccc(Cl)cc12 [cladoniamide A, reference compound] | – | 0.0404

— patent publication US20180193321A1, “INDOLO[…]” (The Rockefeller University, priority 2015, published 2018)
